Measurements reported in US7812017B2, “4-substituted indole and indoline compounds” (Biovitrum AB (publ.), priority 2006, dated 2010).
Structures can show the parent of a compound that is named as a salt.

Tests used:
human 5-HT6 receptor [1] = target: T1, human 5-HT6 receptor (Homo sapiens, UniProt P50406); experiment: biochemical
human 5-HT6 receptor [2] = target: T1, human 5-HT6 receptor; experiment: 5-HT6 receptor binding assay ([3H]-LSD, SPA, membranes of transfected HEK293 cells); conditions: over three experiments

T1 sequence (P50406 whole entry): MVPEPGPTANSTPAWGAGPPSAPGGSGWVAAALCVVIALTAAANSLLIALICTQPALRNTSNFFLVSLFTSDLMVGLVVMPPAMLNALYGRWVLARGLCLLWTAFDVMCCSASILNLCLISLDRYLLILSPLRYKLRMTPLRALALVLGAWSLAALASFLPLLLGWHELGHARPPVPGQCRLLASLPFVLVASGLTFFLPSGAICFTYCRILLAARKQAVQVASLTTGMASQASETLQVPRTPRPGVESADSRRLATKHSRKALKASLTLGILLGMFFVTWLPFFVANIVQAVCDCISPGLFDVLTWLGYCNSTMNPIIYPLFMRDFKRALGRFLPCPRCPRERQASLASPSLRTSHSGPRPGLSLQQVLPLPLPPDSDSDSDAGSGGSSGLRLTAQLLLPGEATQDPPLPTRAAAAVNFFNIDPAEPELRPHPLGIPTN

Hill coefficient (human 5-HT6 receptor [2]) | Structure (SMILES) | Ki (human 5-HT6 receptor [1])
– | O=S(=O)(c1ccccc1)n1ccc2c(CN3CCNCC3)cccc21 [Example 1, 1-(Phenylsulfonyl)-4-(piperazin-1-ylmethyl)-1H-indole hydrochloride] | 1.8 nM
0.94 (SD 0.09) | NCCc1c[nH]c2ccc(O)cc12 [Example 5-HT, 5-hydroxytryptamine] | –
– | CN(C)Cc1cccc2c1ccn2S(=O)(=O)c1ccccc1 [Example 47, N,N-Dimethyl-1-[1-(phenylsulfonyl)-1H-indol-4-yl]methanamine trifluoroacetate] | 3.3 nM
– | O=S(=O)(c1ccccc1)n1ccc2c(CN3CCC3)cccc21 [Example 87, 4-Azetidin-1-ylmethyl)-1-(phenylsulfonyl)-1H-indole trifluoroacetate] | 0.9 nM
